Data: patent publication US20240208992A1, “MACROCYCLES AS CFTR MODULATORS” (Idorsia Pharmaceuticals Ltd, priority 2021, published 2024)

Molecular target: human F508del-CFTR (Homo sapiens, UniProt P13569, DEL508-508)
Assay: F508del-CFTR cell surface expression (corrector activity), DiscoveRx ß-galactosidase complementation chemiluminescence assay in recombinant U2OS cell line;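 also: U2OS cells co-expressing ProLink-tagged F508del-CFTR and a membrane-anchored enzyme acceptor, where more surface CFTR restores β-galactosidase activity measured by chemiluminescence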
Details: U2OS cell line, 16h compound incubation; for EC50: EC50, F508del-CFTR cell surface expression, geomean values; for Emax: U2OS, in relation to the Emax of the corrector lumacaftor (=100%), arithmetic mean values

human F508del-CFTR, sequence (P13569 with tags, fused parts or gaps DEL508-508): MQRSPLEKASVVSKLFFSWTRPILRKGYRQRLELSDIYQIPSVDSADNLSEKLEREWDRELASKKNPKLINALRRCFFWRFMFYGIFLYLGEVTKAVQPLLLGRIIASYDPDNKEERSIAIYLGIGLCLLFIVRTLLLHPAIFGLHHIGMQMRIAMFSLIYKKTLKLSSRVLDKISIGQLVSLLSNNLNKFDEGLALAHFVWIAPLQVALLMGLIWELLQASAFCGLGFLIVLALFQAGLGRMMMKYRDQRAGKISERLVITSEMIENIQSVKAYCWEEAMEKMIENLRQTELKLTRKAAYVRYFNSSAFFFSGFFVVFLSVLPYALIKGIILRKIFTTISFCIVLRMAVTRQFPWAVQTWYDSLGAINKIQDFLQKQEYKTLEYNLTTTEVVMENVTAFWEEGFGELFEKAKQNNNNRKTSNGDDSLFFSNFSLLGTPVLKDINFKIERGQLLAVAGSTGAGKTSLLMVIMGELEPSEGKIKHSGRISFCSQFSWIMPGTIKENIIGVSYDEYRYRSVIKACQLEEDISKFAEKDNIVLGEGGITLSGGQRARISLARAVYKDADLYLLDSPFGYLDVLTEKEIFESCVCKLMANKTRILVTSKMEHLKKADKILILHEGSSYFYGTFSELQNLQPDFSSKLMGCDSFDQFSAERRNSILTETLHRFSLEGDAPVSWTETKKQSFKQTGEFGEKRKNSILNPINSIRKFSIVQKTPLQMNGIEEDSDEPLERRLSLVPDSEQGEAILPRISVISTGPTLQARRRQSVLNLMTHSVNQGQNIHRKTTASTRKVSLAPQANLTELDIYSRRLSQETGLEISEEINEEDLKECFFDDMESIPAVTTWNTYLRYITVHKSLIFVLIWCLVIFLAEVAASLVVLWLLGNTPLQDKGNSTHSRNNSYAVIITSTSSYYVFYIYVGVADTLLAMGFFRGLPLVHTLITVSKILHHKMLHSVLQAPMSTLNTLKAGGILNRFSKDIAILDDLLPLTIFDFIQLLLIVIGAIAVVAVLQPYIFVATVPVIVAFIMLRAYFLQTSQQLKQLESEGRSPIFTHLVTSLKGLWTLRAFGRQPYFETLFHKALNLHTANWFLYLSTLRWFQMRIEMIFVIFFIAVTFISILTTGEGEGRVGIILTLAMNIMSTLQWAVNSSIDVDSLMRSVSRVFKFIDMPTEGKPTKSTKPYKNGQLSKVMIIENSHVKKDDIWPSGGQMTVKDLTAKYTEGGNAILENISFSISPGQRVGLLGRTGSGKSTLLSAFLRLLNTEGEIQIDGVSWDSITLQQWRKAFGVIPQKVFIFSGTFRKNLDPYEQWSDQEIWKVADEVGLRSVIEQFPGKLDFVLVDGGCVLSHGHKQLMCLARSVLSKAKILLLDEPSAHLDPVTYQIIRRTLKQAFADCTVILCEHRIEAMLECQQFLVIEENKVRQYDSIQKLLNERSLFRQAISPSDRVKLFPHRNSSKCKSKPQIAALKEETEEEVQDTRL

Row | Compound | EC50 [nM] | Emax [%]
1 | COc1cccc(CCNC(=O)[C@@H]2CC(=O)N(C)[C@@H](CC(C)C)C(=O)N3CCCC[C@@H]3C(=O)N[C@H](Cc3ccccc3)COc3ccnc(OC)c3C(=O)N2)c1 [Example 180, (7S,11S,17aR,20R)-20-benzyl-11-isobutyl-4-methoxy-N-(3-methoxyphenethyl)-10-methyl-5,9,12,18-tetraoxo-5,6,7,8,9,10,11,12,15,16,17,17a,18,19,20,21-hexadecahydro-14H-dipyrido[2,1-f:3′,4′-p][1]oxa[4,7,10,14]tetraazacycloheptadecine-7-carboxamide] | 388 | 257
2 | COc1nccc2c1C(=O)N[C@H](C(=O)NCCc1ccc(-c3ncccn3)cc1)CC(=O)N(C)[C@@H](CC(C)C)C(=O)N1CCCC[C@@H]1C(=O)N[C@H](Cc1ccccc1)CO2 [Example 181, (7S,11S,17aR,20R)-20-benzyl-11-isobutyl-4-methoxy-10-methyl-5,9,12,18-tetraoxo-N-(4-(pyrimidin-2-yl)phenethyl)-5,6,7,8,9,10,11,12,15,16,17,17a,18,19,20,21-hexadecahydro-14H-dipyrido[2,1-f:3′,4′-p][1]oxa[4,7,10,14]tetraazacycloheptadecine-7-carboxamide] | 718 | 251
3 | COc1nccc2c1C(=O)N[C@H](C(=O)NCCc1nc(-c3ccccc3)no1)CC(=O)N(C)[C@@H](CC(C)C)C(=O)N1CCCC[C@@H]1C(=O)N[C@H](Cc1ccccc1)CO2 [Example 182, (7S,11S,17aR,20R)-20-benzyl-11-isobutyl-4-methoxy-10-methyl-5,9,12,18-tetraoxo-N-(2-(3-phenyl-1,2,4-oxadiazol-5-yl)ethyl)-5,6,7,8,9,10,11,12,15,16,17,17a,18,19,20,21-hexadecahydro-14H-dipyrido[2,1-f:3′,4′-p][1]oxa[4,7,10,14]tetraazacycloheptadecine-7-carboxamide] | 406 | 270
4 | COc1nccc2c1C(=O)N[C@H](C(=O)NCCc1ccccc1)CC(=O)N(C)[C@@H](CC(C)C)C(=O)N1CCCC[C@@H]1C(=O)N[C@H](Cc1ccccc1)CO2 [Example 183, (7S,11S,17aR,20R)-20-benzyl-11-isobutyl-4-methoxy-10-methyl-5,9,12,18-tetraoxo-N-phenethyl-5,6,7,8,9,10,11,12,15,16,17,17a,18,19,20,21-hexadecahydro-14H-dipyrido[2,1-f:3′,4′-p][1]oxa[4,7,10,14]tetraazacycloheptadecine-7-carboxamide] | 621 | 237
5 | COc1nccc2c1C(=O)N[C@H](C(=O)NCCc1ccc(Br)cc1)CC(=O)N(C)[C@@H](CC(C)C)C(=O)N1CCCC[C@@H]1C(=O)N[C@H](Cc1ccccc1)CO2 [Example 184, (7S,11S,17aR,20R)-20-benzyl-N-(4-bromophenethyl)-11-isobutyl-4-methoxy-10-methyl-5,9,12,18-tetraoxo-5,6,7,8,9,10,11,12,15,16,17,17a,18,19,20,21-hexadecahydro-14H-dipyrido[2,1-f:3′,4′-p][1]oxa[4,7,10,14]tetraazacycloheptadecine-7-carboxamide] | 410 | 205
6 | COc1ccc(CCNC(=O)[C@@H]2CC(=O)N(C)[C@@H](CC(C)C)C(=O)N3CCCC[C@@H]3C(=O)N[C@H](Cc3ccccc3)COc3ccnc(OC)c3C(=O)N2)cc1 [Example 185, (7S,11S,17aR,20R)-20-benzyl-11-isobutyl-4-methoxy-N-(4-methoxyphenethyl)-10-methyl-5,9,12,18-tetraoxo-5,6,7,8,9,10,11,12,15,16,17,17a,18,19,20,21-hexadecahydro-14H-dipyrido[2,1-f:3′,4′-p][1]oxa[4,7,10,14]tetraazacycloheptadecine-7-carboxamide] | 379 | 275
